We go through three compounds from US12220465B2, “Compositions and methods for targeted treatment and imaging of cancer or tumors” (Washington University, priority 2018, dated 2025).

A word on the IC50: it is the midpoint of a concentration-inhibition curve.

Each structure is given as a SMILES string.

Data set [1] concerns EPCs. The experiment in a line: MTT survival assay of EPCs treated with agent. In kind it is cell-based. Particulars: 48 hours; for effect on survival of EPCs: increasing concentrations. Here is the method: (§1) Anticancer agents have preferential cytotoxic effects on cancer cells compared to non-malignant cells (such as EPCs). Therefore we tested the effect of BTZ (anti-cancer drug) on the survival of malignant MM cells (MM1s and H929) and on EPCs, in which cells were treated with increasing concentrations of Bortezomib, and the killing effect was evaluated after 48 hours using MTT assay (FIGS. 8A and B). Also EPCs were treated with and without high-dose of BTZ (50 nM) and we measured the in vitro migration of the EPCs towards MM-conditioned media, using a Boyden chamber migration assay, and the number of migrating EPCs was analyzed by flow cytometry (FIG. 8C).
Prodrugs such as TC and BPA are inert agents that are not supposed to have effect by them selves on cancer or normal cell survival, but when activated using positron emission and neutrons, respectively, these agents become active drugs and kill the cell that they reside in and adjacent cells next to it. We tested the effect of TC and BPA (prodrugs) on the survival of EPCs, in which cells were treated with increasing concentrations of these, and the killing effect was evaluated after 48 hours using MTT assay (FIGS. 9A and 10A). […] Also EPCs were treated with and without increasing doses of TC and BPA and we measured the in vitro migration of the EPCs towards MM-conditioned media, using a Boyden chamber migration assay, and the number of migrating EPCs was analyzed by flow cytometry (FIGS. 9C and 10C).
These agents have no cytotoxicity effect, to confirm that we tested the effect of LS-542, (as a model of an imaging agent) on survival of EPCs, in which cells were treated with increasing concentrations of these, and the killing effect was evaluated after 48 hours using MTT assay (FIG. 11A). […] Also EPCs were treated with and without increasing doses of LS-542 and we measured the in vitro migration of the EPCs towards MM-conditioned media, using a Boyden chamber migration assay, and the number of migrating EPCs was analyzed by flow cytometry (FIG. 11C).

For data set [2], the system named is EPCs. The experiment in a line: Boyden chamber migration of agent-treated EPCs towards MM-conditioned media. The format is cell-based. The note with it: for effect on migration of EPCs to tumor: increasing doses, towards MM-conditioned media. The procedure:
as §1
Prodrugs such as TC and BPA are inert agents that are not supposed to have effect by them selves on cancer or normal cell survival, but when activated using positron emission and neutrons, respectively, these agents become active drugs and kill the cell that they reside in and adjacent cells next to it. We tested the effect of TC and BPA (prodrugs) on the survival of EPCs, in which cells were treated with increasing concentrations of these, and the killing effect was evaluated after 48 hours using MTT assay (FIGS. 9A and 10A). And to confirm the loading of EPCs with TC and BPA, we treated the EPCs with increasing doses of TC and BPA, digested the cells with nitric acid, and used ICP-MS to detect the level of Titanium and boron in the EPCs, respectively (FIGS. 9B and 10B). Also EPCs were treated with and without increasing doses of TC and BPA and we measured the in vitro migration of the EPCs towards MM-conditioned media, using a Boyden chamber migration assay, and the number of migrating EPCs was analyzed by flow cytometry (FIGS. 9C and 10C).
These agents have no cytotoxicity effect, to confirm that we tested the effect of LS-542, (as a model of an imaging agent) on survival of EPCs, in which cells were treated with increasing concentrations of these, and the killing effect was evaluated after 48 hours using MTT assay (FIG. 11A). And to confirm the loading of EPCs with LS-542, we treated the EPCs with increasing doses of LS-542, and the amount of labeling was measure by the mean-flurescence intensity of the dye by flow cytometry (FIG. 11B). Also EPCs were treated with and without increasing doses of LS-542 and we measured the in vitro migration of the EPCs towards MM-conditioned media, using a Boyden chamber migration assay, and the number of migrating EPCs was analyzed by flow cytometry (FIG. 11C).

The subject of data set [3] is malignant MM cells (MM1s and H929). Description: MTT survival assay of malignant MM cells treated with Bortezomib. In kind it is cell-based. Particulars: Homo sapiens, 48 hours, read-out: IC50, killing of myeloma cells. Here is the method: as §1
(Tetrazolium dyes change colour on reduction, which living cells bring about.)

Data set [4] has as its system EPCs. Particulars: calcein-UV and PI, flow cytometry.
Procedure: The effect of Tc on the cell vitality/viability by staining the cells with viability dye (calcein-UV) and propidium iodide (PI) and analyzing by flow cytometry was tested.

With `N[C@@H](Cc1ccc(B(O)O)cc1)C(=O)O` [BPA, 4-Borono-L-phenylalanine], the “effect on survival of EPCs” value in data set [1] was “no effect on the survival”. Also, the “effect on migration of EPCs to tumor” value in data set [2] is given as “no effect”.
`CC(C)C[C@H](NC(=O)[C@H](Cc1ccccc1)NC(=O)c1cnccn1)B(O)O` [BTZ, Bortezomib]: in data set [3], the IC50 worked out at 5 nM. For the same compound, the “BTZ concentration up to which EPCs are not sensitive (survival)” value in data set [1] is “up to 50 nM”. Moreover, in data set [2] (BTZ 50 nM for 2 hrs, MM-conditioned media), the “effect of loading on migration of EPCs towards cancer cells” value is recorded as “did not affect the migration of EPCs”.
For the compound `[Cl-].[Cl-].[Ti+4].c1cc[cH-]c1.c1cc[cH-]c1` [Titanocene], in data set [1], the “effect on survival of EPCs” value is recorded as “no effect on the survival”. For the same compound, the “effect on migration of EPCs to tumor” value in data set [2] is reported as “no effect”. For the same compound, the “effect on migration of EPCs to conditioned MM media” value in data set [2] (same concentration range, up to 150 μM) is “did not affect the migration of EPCs”. The “concentration up to which Tc is not toxic to EPCs” value in data set [4] was “up to 150 μM”.
